Data as given in patent US5827562A, “Sweetener salts” (Holland Sweetener Company V.o.F., priority 1995, dated 1998).
Values joined by “and” are separate entries in the source; they are usually repeats but may differ in a detail not shown here. Identical values can stand only once. Counter-ions that a name gives are not always drawn. Like-named read-outs stand apart in the source and are kept apart here. Peptide text beside a SMILES is read from it.

Assays:
[1] = Thermal stability test: open dish in thermostatted oven, decomposition products (DKP, AP) by hplc; type: physicochemical; conditions: for DKP content: initial content, relative to dry product
Method: d. Thermal stability tests were conducted by allowing samples of a relevant product to stand for the indicated times in an open dish placed in a thermostatted oven at the relevant temperature, and to determine, via hplc, the concentrations of possible decomposition products such as, in the case of analysis of aspartame salts, diketopiperazine (DKP) and aspartyl-phenylalanine (AP) in the initial and the final sample.
(§1) A number of the products obtained in the above-mentioned experiments and comparative experiments were subjected to further analysis of characterization. The following values were determined: (a) thermal stability (at 70° C. and/or at 120° C.) and (b) dissolution rate. By way of comparison the same was done for a number of reference substances. As regards the thermal stability of the APM containing substances, attention was paid in particular to the increase in the diketopiperazine decomposition product (DKP) in wt.% relative to the dry product.

[2] = Dissolution rate, spectrophotometric dissolution curve in pH 5.0 buffer; type: physicochemical; conditions: 23° C.
Method: c. The dissolution rate was found through spectrophotometric determination of the dissolution curve, by introducing 0.1 wt.% of the product (or a screen fraction thereof at 23° C. into a pH 5.0 buffer (Merck titrisol, pH 5.0, in 1 liter of Milli-Q water) whilst stirring continuously.
as §1, with “product. It was also established that the salts included in the table are not hygroscopic.” for “product.”

[3] = Moisture content, Karl-Fischer water determination; type: physicochemical; conditions: dried product
Method: b. The moisture content of the products obtained was determined by means of the Karl-Fischer water determination.

[4] = general statement, aspartame or its derivatives; cited from earlier work
[5] = usual moisture content of the individual component; cited from earlier work
Solubility in water = type: physicochemical; conditions: aqueous reaction medium

SMILES	Increase in DKP content ([1]; 1 hour, 120° C.) [wt. %]	Increase in DKP content ([1]; 70 hours, 70° C.) [wt. %]	DKP content [1] [wt. %]	moisture content ([3]; table 1) [wt. %]	moisture content [3]	other results
COC(=O)[C@H](Cc1ccccc1)NC(=O)[C@@H](N)CC(=O)O [APM granulate, reference compound] (H-Asp-Phe-OMe)	2.09	0.75	0.18	2.30		Dissolution rate ([2]; 200-700 μm fraction, 0.1 wt.%): 7 min; Dissolution rate ([2]; <200 μm fraction, 0.1 wt.%): 4 min
COC(=O)[C@H](Cc1ccccc1)NC(=O)[C@@H](N)CC(=O)O [APM powder] (H-Asp-Phe-OMe)	2.34	0.20	0.04	2.60		Dissolution rate ([2]; 0.1 wt.% product, stirring): 2 to 3 min
COC(=O)[C@H](Cc1ccccc1)NC(=O)[C@@H](N)CC(=O)O [APM, Δ-L-aspartyl-L-phenylalanine methyl ester] (H-Asp-Phe-OMe)						thermal stability [4]: relatively unfavorable thermal stability
CC1=CC(=O)NS(=O)(=O)O1 [AceH]						thermal stability, observation in words ([1]; 1 hour, 120° C.): yellow/orange colour; strong degradation; hydrogen sulphide odour
CC1=CC(=O)NS(=O)(=O)O1.COC(=O)[C@H](Cc1ccccc1)NC(=O)[C@@H](N)CC(=O)O [Exp. 2k, 1:1 salt of APM and acesulfamic acid] (H-Asp-Phe-OMe)					0.10%	
CC1=CC(=O)NS(=O)(=O)O1.COC(=O)[C@H](Cc1ccccc1)NC(=O)[C@@H](N)CC(=O)O [Exp. 2l, 1:1 salt of APM and acesulfamic acid] (H-Asp-Phe-OMe)					0.07%	
CC1=CC(=O)NS(=O)(=O)O1.COC(=O)[C@H](Cc1ccccc1)NC(=O)[C@@H](N)CC(=O)O [Exp. 3a, 1:1 salt of APM and acesulfamic acid] (H-Asp-Phe-OMe)					2.5%	
COC(=O)C(Cc1ccccc1)NC(=O)C(N)CC(=O)O.O=C1NS(=O)(=O)c2ccccc21 (stereo not drawn) [Exp. 3b, 1:1 salt of APM and saccharinate] (H-Asp-Phe-OMe; configuration not given here)					0.27%	
COC(=O)C(Cc1ccccc1)NC(=O)C(N)CC(=O)O.O=C1NS(=O)(=O)c2ccccc21 (stereo not drawn) [Exp. 4b., 1:1 salt of APM and saccharin] (H-Asp-Phe-OMe; configuration not given here)					0.04% and 0.05%	
CC1=CC(=O)NS(=O)(=O)O1.COC(=O)[C@H](Cc1ccccc1)NC(=O)[C@@H](N)CC(=O)O [Exp. 5a., 1:1 salt of APM and acesulfamic acid] (H-Asp-Phe-OMe)					0.09%	
CC1=CC(=O)NS(=O)(=O)O1.COC(=O)[C@H](Cc1ccccc1)NC(=O)[C@@H](N)CC(=O)O [Experiment 6, 1:1 salt of APM and acesulfamic acid] (H-Asp-Phe-OMe)					0.15%	
O=C1NS(=O)(=O)c2ccccc21 [SacH, 3-oxo-2,3-dihydro-1,2-benzisothiazole-1,1-dioxide]						thermal stability, observation in words ([1]; 1 hour, 120° C.): stable
COC(=O)[C@H](Cc1ccccc1)NC(=O)[C@@H](N)CC(=O)O.O=C1NS(=O)(=O)c2ccccc21 [comp. exp. 1A, 1:1 salt of APM and SacH] (H-Asp-Phe-OMe)		0	0.53			
COC(=O)[C@H](Cc1ccccc1)NC(=O)[C@@H](N)CC(=O)O.O=C1NS(=O)(=O)c2ccccc21 [comp. exp. 1B, 1:1 salt of APM and SacH] (H-Asp-Phe-OMe)		0	0.21			
CC1=CC(=O)NS(=O)(=O)O1.COC(=O)[C@H](Cc1ccccc1)NC(=O)[C@@H](N)CC(=O)O [comp. exp. 1C, 1:1 salt of APM and acesulfamic acid] (H-Asp-Phe-OMe)	2.04	1.27	0.35	0.76	0.76%	thermal stability, observation in words ([1]; 1 hour, 120° C.): yellow/yellowbrown colour, with some degradation of the Ace part; thermal stability, observation in words ([1]; 70 hours, 70° C.): pale yellow; with hplc some degradation of the Ace part
CC1=CC(=O)NS(=O)(=O)O1.COC(=O)[C@H](Cc1ccccc1)NC(=O)[C@@H](N)CC(=O)O [comp. exp. 1D, 1:1 salt of APM and acesulfamic acid] (H-Asp-Phe-OMe)	2.18	0.52	0.32	0.89	0.89%	thermal stability, observation in words ([1]; 1 hour, 120° C.): yellow/yellowbrown colour, with some degradation of the Ace part; thermal stability, observation in words ([1]; 70 hours, 70° C.): pale yellow; with hplc some degradation of the Ace part
O=S(=O)(O)NC1CCCCC1 [cyclamate-Ca]						moisture content [5]: up to 9%
COC(=O)[C@H](Cc1ccccc1)NC(=O)[C@@H](N)CC(=O)O.O=C1NS(=O)(=O)c2ccccc21 [exp. 1a., 1:1 salt of APM and SacH] (H-Asp-Phe-OMe)	0	0	0.01	0.03	0.03%	Dissolution rate ([2]; 0.1 wt.% product, stirring): 1 min
COC(=O)[C@H](Cc1ccccc1)NC(=O)[C@@H](N)CC(=O)O [exp. 1b., 1:1 salt of APM and CycH] (H-Asp-Phe-OMe)	0.14		0.18	0.16	0.16%	solubility of the sweetening salt (Solubility in water): high solubility
CC1=CC(=O)NS(=O)(=O)O1.COC(=O)[C@H](Cc1ccccc1)NC(=O)[C@@H](N)CC(=O)O [exp. 2a., 1:1 salt of APM and acesulfamic acid] (H-Asp-Phe-OMe)	0	0	0.01	0.11	0.11%	Dissolution rate ([2]; 0.1 wt.% product, stirring): 1 min
CC1=CC(=O)NS(=O)(=O)O1.COC(=O)[C@H](Cc1ccccc1)NC(=O)[C@@H](N)CC(=O)O [exp. 4a., 1:1 salt of APM and acesulfamic acid] (H-Asp-Phe-OMe)	0		0.01	0.12	0.12%	thermal stability, observation in words ([1]; 1 hour, 120° C.): fully stable, white product; Dissolution rate ([2]; 0.1 wt.% product, stirring): 1 min
CC1=CC(=O)NS(=O)(=O)O1.COC(=O)[C@H](Cc1ccccc1)NC(=O)[C@@H](N)CC(=O)O [exp. 4c., 1:1 salt of APM and acesulfamic acid] (H-Asp-Phe-OMe)	0	0	0.01	0.04	0.04%	thermal stability, observation in words ([1]; 1 hour, 120° C.): fully stable, white product; Dissolution rate ([2]; 0.1 wt.% product, stirring): 1 min
O=C1NS(=O)(=O)c2ccccc21 [saccharin-Na, sodium 2,3-dihydro-3-oxobenzisosulfonazole]						moisture content [5]: up to 15%
